Test results taken from ChEMBL document CHEMBL2034982, “Synthesis of new 2-galactosylthiazolidine-4-carboxylic acid amides. Antitumor evaluation against melanoma and breast cancer cells” (Eur J Med Chem, 2012).
pIC50: −log10 of the molar value. Active and inactive are the calls of the source. The calls are words filed in the database; no cut-off is given here.

Assays:
[1] = Cytotoxicity against human HFF1 cells after 48 hrs by MTT assay; type: cell-based; conditions: HFF-1, 48 h
A-375 [2] = assay: Selectivity index, ratio of IC50 for human HFF1 cells to IC50 for human A375 cells; type: functional
MCF7 [3] = assay: Cytotoxicity against human MCF7 cells after 48 hrs by MTT assay; type: functional, cell-based; conditions: for pIC50: MCF7, 48 h
A-375 [4] = assay: Cytotoxicity against human A375 cells after 48 hrs by MTT assay; type: functional, cell-based; conditions: for pIC50: A-375, 48 h
MCF7 [5] = assay: Selectivity index, ratio of IC50 for human HFF1 cells to IC50 for human MCF7 cells; type: functional
A-375 [6] = assay: Cytotoxicity against human A375 cells assessed as increase in apoptotic cells at 17 to 30 uM after 48 hrs by annexin V/propidium iodide staining based FACS flow cytometry; type: functional, cell-based
A-375 [7] = assay: Cell cycle arrest in human A375 cells assessed as accumulation at sub G1 phase at 30 uM after 48 hrs using propidium iodide staining by FACS flow cytometry; type: functional
A-375 [8] = assay: Induction of apoptosis in human A375 cells assessed as increase in ratio of Bax/Bcl2 at 17 uM after 48 hrs by fluorescence assay relative to control; type: functional
A-375 [9] = assay: Cell cycle arrest in human A375 cells assessed as accumulation at sub G1 phase at 17 uM after 48 hrs using propidium iodide staining by FACS flow cytometry; type: functional
A-375 [10] = assay: Cytotoxicity against human A375 cells assessed as increase in necrotic cells at 17 to 30 uM after 48 hrs by annexin V/propidium iodide staining based FACS flow cytometry; type: functional, cell-based
A-375 [11] = assay: Cell cycle arrest in human A375 cells assessed as accumulation at G1 phase at 30 uM after 48 hrs using propidium iodide staining by FACS flow cytometry (reference value: 66.4 +/- 4.1%); type: functional
A-375 [12] = assay: Cell cycle arrest in human A375 cells assessed as accumulation at S phase at 30 uM after 48 hrs using propidium iodide staining by FACS flow cytometry (reference value: 23.0 +/- 3.3%); type: functional
A-375 [13] = assay: Cell cycle arrest in human A375 cells assessed as accumulation at G2 phase at 17 uM after 48 hrs using propidium iodide staining by FACS flow cytometry (reference value: 10.6 +/- 1.2%); type: functional
A-375 [14] = assay: Cytotoxicity against human A375 cells after 48 hrs by annexin V/propidium iodide staining based FACS flow cytometry; type: functional, cell-based
A-375 [15] = assay: Cell cycle arrest in human A375 cells assessed as accumulation at S phase at 17 uM after 48 hrs using propidium iodide staining by FACS flow cytometry (reference value: 23.0 +/- 3.3%); type: functional
HCC1806 = assay: Cytotoxicity against human HCC1806 cells after 48 hrs by MTT assay; type: functional, cell-based; conditions: HCC1806, 48 h
A-375 [16] = assay: Cell cycle arrest in human A375 cells assessed as accumulation at G2 phase at 30 uM after 48 hrs using propidium iodide staining by FACS flow cytometry (reference value: 10.6 +/- 1.2%); type: functional
A-375 [17] = assay: Induction of apoptosis in human A375 cells after 48 hrs using propidium iodide staining by FACS flow cytometry; type: functional, cell-based
A-375 [18] = assay: Induction of apoptosis in human A375 cells assessed as increase in ratio of Bax/Bcl2 at 30 uM after 48 hrs by fluorescence assay relative to control; type: functional, cell-based
A-375 [19] = assay: Cell cycle arrest in human A375 cells assessed as accumulation at G1 phase at 17 uM after 48 hrs using propidium iodide staining by FACS flow cytometry (reference value: 66.4 +/- 4.1%); type: functional
A-375 [20] = assay: Cytotoxicity against human A375 cells assessed as increase in late apoptotic cells at 17 to 30 uM after 48 hrs by annexin V/propidium iodide staining based FACS flow cytometry; type: functional, cell-based
A-375 [21] = assay: Cytotoxicity against human A375 cells assessed as decrease in viable cells at 17 to 30 uM after 48 hrs by annexin V/propidium iodide staining based FACS flow cytometry; type: functional, cell-based

| SMILES | pIC50 [1] | Ratio IC50 (A-375 [2]) | Activity (MCF7 [3]) | pIC50 (MCF7 [3]) | Activity (A-375 [4]) | pIC50 (A-375 [4]) | Ratio IC50 (MCF7 [5]) | pIC50 (HCC1806) | further results |
| --- | --- | --- | --- | --- | --- | --- | --- | --- | --- |
| CCCCCCCCCCCCNC(=O)C1CSC([C@H](O)[C@@H](OC(C)=O)[C@@H](OC(C)=O)[C@@H](COC(C)=O)OC(C)=O)N1C(C)=O (mixture of isomers) | 5.54 | 0.22 | Dose-dependent effect | 5.12 | Dose-dependent effect | 4.64 | 0.91 |  |  |
| CCCCCCCCCCCCCCNC(=O)C1CSC([C@H](O)[C@@H](OC(C)=O)[C@@H](OC(C)=O)[C@@H](COC(C)=O)OC(C)=O)N1C(C)=O (mixture of isomers) | 4.71 | 1 | Dose-dependent effect | 5.08 | Dose-dependent effect | 4.71 | 2.2 |  |  |
| CCCCCCCCCCCCCCCCNC(=O)C1CSC([C@H](O)[C@@H](OC(C)=O)[C@@H](OC(C)=O)[C@@H](COC(C)=O)OC(C)=O)N1C(C)=O (mixture of isomers) | 4.53 | 1.8 | Dose-dependent effect | 5.24 | Dose-dependent effect | 4.77 | 5.8 | 4.90 | Activity (A-375 [6]): Active; Activity (A-375 [7]): 16.6%; Ratio (A-375 [8]): 2; Activity (A-375 [9]): 5.6%; Activity (A-375 [10]): Active; Activity (A-375 [11]): 43.6%; Activity (A-375 [12]): 46%; Activity (A-375 [13]): 16%; Activity (A-375 [14]): Dose-dependent effect; Activity (A-375 [15]): 23.6%; Activity (A-375 [16]): 10.2%; Activity (A-375 [17]): Dose-dependent effect; Activity (A-375 [18]): Active; Activity (A-375 [19]): 60.6%; Activity (A-375 [20]): Active; Activity (A-375 [21]): Active |
| CCCCCCCCCCCCCCCCCCNC(=O)C1CSC([C@H](O)[C@@H](OC(C)=O)[C@@H](OC(C)=O)[C@@H](COC(C)=O)OC(C)=O)N1C(C)=O (mixture of isomers) | 4.57 | 1.1 | Dose-dependent effect | 5.11 | Dose-dependent effect | 4.69 | 3 |  |  |
| CN(C)/N=N/c1[nH]cnc1C(N)=O [DACARBAZINE] |  |  |  |  |  | < 3.30 |  |  |  |
| CC(=O)O[C@@]12CO[C@@H]1C[C@H](O)[C@@]1(C)C(=O)[C@H](O)C3=C(C)[C@@H](OC(=O)[C@H](O)[C@@H](NC(=O)OC(C)(C)C)c4ccccc4)C[C@@](O)([C@@H](OC(=O)c4ccccc4)[C@H]21)C3(C)C [DOCETAXEL] |  |  |  | 4.92 |  |  |  | 5.08 |  |
